Measurements as given in patent US6761694B2, “Methods for measuring retinal damage” (Allergan, Inc., priority 2001, dated 2004).

Test system: retina exposed to laser (secondary retinal damage)
Assay: Retinal thickness analysis (Retinal Thickness Analyzer) after laser photocoagulation in a patient with AMD
Assay type: in vivo, human
Text: In order to calculate the slope of retinal thickness, the thickness of the retina must be measured. In practicing the methods of the invention, it is preferred that the retinal thickness be measured in situ as compared to histologically. Retinal thickness may be measured using publicly available devices generally configured to image optical cross-sections of the retina, and to digitally process the cross-sections to result in a measurement of retinal thickness. One such device used to practice the methods of the invention is the Retinal Thickness Analyzer ([…] Technology, Ltd., […] Zion, Israel) as disclosed in U.S. Pat. No. 6,267,477, entitled, “Three dimensional imaging apparatus and a method for use thereof”. Another device that may be used to measure retinal thickness in the methods of the invention is the Optical Coherence Tomography (OCT) Scanner (Humphrey Instruments, Inc., San Leandro, Calif.) and as described in U.S. Pat. No. 5,491,524, entitled, “Optical coherence tomography corneal mapping apparatus”. Another device that may be used to measure retinal thickness in practicing the methods of the invention is the Heidelberg Retina Tomograph (HRT; Heidelberg Engineering GmbH, Heidelberg, Germany) and as described in U.S. Pat. No. 5,170,276, entitled, “Apparatus for imaging an object”. The images obtained by such devices can then be examined, and the slope of retinal thickness measured. The slope of retinal thickness may be calculated as a ratio by measuring the change in retinal thickness as a function of distance between two or more points of the retina near the lesion site. The human retina is approximately 200-250 μm thick. Using the devices described above, it is possible to optically cross-section the retina in 20 μm increments. If the retinal thickness changes by 200 μm over a distance of 20 μm, the corresponding slope of retinal thickness would be 10. Similarly, if the retinal thickness changes 200 μm over a distance of 2 mm, the corresponding slope would be 0.1. In the foregoing examples, a slope of 10 indicates the retinal damage is less than the retinal damage where the slope of damage is 0.1. Persons skilled in the art will appreciate that the slope of retinal thickness may be calculated over any number of distances, and that the smallest distance is only limited by the resolution of the devices used to practice the methods of the invention. A person presents with blurred vision in their right eye with particular distorted images near the middle of their visual field. An ophthalmologist conducts an eye exam. […] The ophthalmologist detects the presence of an abnormal amount of soft drusen. A diagnosis of age-related macular degeneration (AMD) is made. […]

Structure (SMILES): CC12CC3CC(C)(C1)CC(N)(C3)C2 [memantine]
- secondary damage by retinal thickness analysis (memantine 0.25% w/v topically prior to laser treatment, after the surgery): little secondary damage
- visual impairment on additional laser treatments (memantine 0.25% w/v topically, continued laser treatments): without significant visual impairment
- change in retinal thickness (over a distance of about 40 μm, memantine 0.25% w/v topically prior to laser treatment, twenty-one days after laser surgery): 200 μm
- slope of damage (slope of retinal thickness) (person with AMD, memantine 0.25% w/v topically prior to laser photocoagulation, scan twenty-one days after laser surgery): approximately 8
